Laboratory results published in patent US7053121B2, “Compositions and methods for regulating circadian rhythms” (priority 2001, dated 2006).

How the values were obtained:
[1] = test system: Gal4DBD fusions of CLOCK and MOP4 with VP16 fusions of nuclear receptors; experiment: Mammalian two-hybrid analysis in CV-1 cells; format: cell-based, human; details: ligand 1 μM, FIG. 1B
Procedure: NIH 3T3 cells were seeded at 20,000 cells/well in a 48-well dish and transfected by FuGENE™ liposome-mediated transfer (Roche Molecular Biochemicals, Indianapolis, Ind.) with internal control pRLSV40 (5 ng), pGL3M34 reporter, CMX-MOP4 (100 ng) or CMX-CLOCK (100 ng) and CMX-BMAL1 (100 ng) in the presence or absence of CMX-RXRα or CMX-RARα (25–100 ng). CMX-MOP4ΔAAA (100 ng), pCDNA3.1MOP4Δ727 (100 ng), pCDNA3.1MOP4Δ624 (100 ng), and CMX-MOP4Δ635–645 (100 ng) were used instead of CMXMOP4 where indicated. The amount of DNA in each transfection was kept constant by addition of empty pCDNA3 vector. […] Forty-eight hours post-transfection, cells were harvested to determine luciferase activity by luminometry (Dual-Luciferase® Reporter Assay System, Promega Corporation, Madison, Wis.). The procedure for mammalian two-hybrid analysis was identical except that CV-1 cells were used. MH100TK-LUC (100 ng) reporter, CMX-Gal4DBD-MOP4 (20 ng), CMX-Gal4DBD-CLOCK (20 ng) in the presence of, CMX-VP16-PPARγ (20 ng), CMX-VP16-RARα (20 ng), CMX-VP16-TRβ (20 ng), CMX-RXRα (20 ng) or CMX-VP16-PPARα (20 ng). […] For all the figures, each value is the mean of three independent experiments +/− standard error. Each experiment included six replicates from a single assay.

[2] = test system: interaction between MOP4 and CLOCK with RXRα and RARα; details: YRG2 cells, ligand 1 μM, FIG. 1A
Procedure: A liquid β-galactosidase activity assay was utilized to assess the effect of ligands on these novel interactions.
The library was prepared by ligating XhoI/EcoRI-adapted, phosphorylated, oligo-dT-primed cDNA, prepared from polyadenylated RNA extracted from 1×10^8 human aortic vascular smooth muscle cells (Cambrex Corporation, East Rutherford, N.J.), into the HybriZAP® II vector and packaged with Gigapack® III Gold packaging extract (Stratagene, La Jolla, Calif.) into a primary lambda library. […] RXRα-interacting clones were selected on media lacking tryptophan, leucine, and histidine, supplemented with 10 mM 3-amino-triazol.

CLOCK and RARα = biological target: T1, CLOCK and RARα (Homo sapiens, UniProt P10276); experiment: In vitro immunoprecipitation of CLOCK and RARα; format: binding; details: in vitro translated proteins, incubation in presence of retinoic acid
T1 construct: made in house; host or cells: coupled in vitro transcription-translation (labelled protein); E. coli BL21(DE3) (purified protein, inferred)
T1 sequence (P10276 1-462): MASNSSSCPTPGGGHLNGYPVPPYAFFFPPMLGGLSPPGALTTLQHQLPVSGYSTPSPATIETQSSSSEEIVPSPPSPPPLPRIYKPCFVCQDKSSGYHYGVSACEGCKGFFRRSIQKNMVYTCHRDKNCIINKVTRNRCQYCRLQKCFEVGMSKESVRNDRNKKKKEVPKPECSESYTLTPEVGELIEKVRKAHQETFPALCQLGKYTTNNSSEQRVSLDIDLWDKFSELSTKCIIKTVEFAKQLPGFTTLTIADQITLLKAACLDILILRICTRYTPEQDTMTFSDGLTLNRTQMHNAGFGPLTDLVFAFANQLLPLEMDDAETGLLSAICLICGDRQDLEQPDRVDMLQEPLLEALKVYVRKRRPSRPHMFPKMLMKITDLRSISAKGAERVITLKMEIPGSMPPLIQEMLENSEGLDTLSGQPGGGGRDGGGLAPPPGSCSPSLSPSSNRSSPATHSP
T1 sequence (O15516 1-846 partner): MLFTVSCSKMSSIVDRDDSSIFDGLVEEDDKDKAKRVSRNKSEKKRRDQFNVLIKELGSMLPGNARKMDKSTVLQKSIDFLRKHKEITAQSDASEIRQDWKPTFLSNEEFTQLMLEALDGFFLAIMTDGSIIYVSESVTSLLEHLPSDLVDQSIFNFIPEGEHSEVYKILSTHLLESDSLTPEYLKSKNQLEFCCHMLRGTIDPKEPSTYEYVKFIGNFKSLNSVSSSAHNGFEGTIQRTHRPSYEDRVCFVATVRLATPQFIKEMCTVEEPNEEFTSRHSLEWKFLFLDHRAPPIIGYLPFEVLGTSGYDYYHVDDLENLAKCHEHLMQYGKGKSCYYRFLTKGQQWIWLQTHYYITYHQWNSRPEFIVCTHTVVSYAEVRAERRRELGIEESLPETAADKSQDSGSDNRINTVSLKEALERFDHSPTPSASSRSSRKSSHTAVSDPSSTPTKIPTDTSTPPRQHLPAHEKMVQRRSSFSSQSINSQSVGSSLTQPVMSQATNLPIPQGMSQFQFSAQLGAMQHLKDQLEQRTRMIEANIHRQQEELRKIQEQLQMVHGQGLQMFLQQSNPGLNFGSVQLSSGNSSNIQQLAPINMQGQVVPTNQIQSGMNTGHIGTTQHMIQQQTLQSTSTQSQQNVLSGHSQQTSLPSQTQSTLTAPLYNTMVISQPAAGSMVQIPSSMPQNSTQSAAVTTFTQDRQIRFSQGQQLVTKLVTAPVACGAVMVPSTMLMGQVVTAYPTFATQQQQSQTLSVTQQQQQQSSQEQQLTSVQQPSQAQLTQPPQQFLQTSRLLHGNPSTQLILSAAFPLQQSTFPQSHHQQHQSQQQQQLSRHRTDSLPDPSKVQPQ
Procedure: [^35S]Methionine-labeled RARα and CLOCK were incubated with purified CLOCK and RARα protein, respectively for 30 min. at room temperature in the presence or absence of tRA. The complex was immunoprecipitated using anti-CLOCK and anti-RAR antibodies (Santa Cruz Biotechnology, Inc., Santa Cruz, Calif.) and protein A-agarose (Gibco, Carlsbad, Calif.) was added. Beads were washed extensively and bound proteins separated by SDS-PAGE and analyzed by a PhosphorImager.

[3] = test system: hPER2 transcript oscillation in VSMC; experiment: Serum shock and ribonuclease protection analysis of hPER2 mRNA in VSMC; format: cell-based, human
Procedure: In these experiments, it was determined that oscillating clock gene expression could be induced by serum shock in VSMC as had been reported in Rat and 3T3 fibroblasts (Balsalobre, et al. (1998) Cell 93:929–937; Akashi, et al. (2000) Genes Dev. 14:645–649). Following addition of 50% serum for two hours, hPER2 mRNA peaks very rapidly at T4 (fours hours after serum shock) and enters a cyclical expression pattern, peaking at T24 and T48 (FIG. 5A). Adding tRA at T17 and leaving it in the culture for the remainder of the experiment, delayed the peak of hPER2 mRNA from T24 to T28. […] When tRA was added at T17 and removed at T19, the first hPER2 peak was again delayed to T28. However, the drop in hPER2 levels was followed by an increase, resulting in a second cycle which peaked at T52 (FIG. 5C). Thus, tRA phase delayed the hPER oscillation by four hours, which is consistent with the observation that ligand-bound RARα prevents CLOCK:BMAL1 heterodimer from activating transcription through its E-box. Removal of the ligand restored the ability of the CLOCK:BMAL1 heterodimer to induce hPER2 expression, but the phase of the cycle was delayed.
The coincidental circadian variability of catecholamines and blood pressure (Hossmann, et al. (1980) Cardiovasc. Res. 14:125–129) led to the investigation of whether catecholamines can phase-shift a core clock oscillator in VSMC. Norepinephrine and epinephrine (10 μM), were added at T16 and left in the culture until T18. This phase advanced the hPER2 mRNA peak to T20 instead of T24 (FIG. 5D).
VSMC (3500 cells/cm^2) were plated on 10 cm^2 plates 6 days before the experiment and were serum-starved for 48 hours after reaching confluence. Serum shock was carried out using 50% fetal bovine serum (Gibco, Carlsbad, Calif.) as previously described (Balsalobre, et al. (1998) Cell 93:929–937) and cells were harvested at the indicated time points and stored at −80° C. Total RNA was extracted from each sample using the RNAwiz™ reagent (Ambion, Austin, Tex.). […] RNA (5 μg) from each time point was hybridized for 16 hour with 8×10^4 cpm of the probe at 42° C. and digested with RNaseA/T1 (SequaGel System, National Diagnostics, Atlanta, Ga.), dried and analyzed by a PhosphorImager. The data was quantitated using ImageQuant version 1.2 software (Amersham Pharmacia Molecular Dynamics, Piscataway, N.J.) All results represent a mean of at least two independent experiments and are expressed as the ratio of the MOP4 or PER2 signal divided by the Actin signal at the same time point.

SMILES	interaction of MOP4 and CLOCK with RXRα and RARα [1]	strength of the interaction between MOP4 and CLOCK with RARα [2]	association of CLOCK and RARα (coimmunoprecipitation) (CLOCK and RARα)	hPER2 transcript oscillation ([3]; addition at T17, FIG. 5B)	hPER2 transcript oscillation ([3]; addition at T17 and removal at T19, FIG. 5C)	phase delay of the hPER oscillation ([3]; tRA added at T17)	subsequent hPER2 levels ([3]; tRA added at T17 and left in culture, FIG. 5B)
CC1=C(/C=C/C(C)=C\C=C\C(C)=C\C(=O)O)C(C)(C)CCC1 [9cisRA, 9-cis-retinoic acid]	ligand-dependent manner	–	–	–	–	–	–
CC1=C(/C=C/C(C)=C/C=C/C(C)=C/C(=O)O)C(C)(C)CCC1 [tRA, all-trans retinoic acid]	ligand-dependent manner	increase the strength of the interaction	increase in association	delayed	altered	four	dropped and did not peak again
